Like-named read-outs stand apart in the source and are kept apart here. Numbered stars: 1 amine (or outer) side, 2 acyl side, 3 side chain; on linkers, the order of the positions; unused ones are H or OH. Bridge positions count the residues as written; N and C are the ends. Square brackets hold non-standard residues; d marks the D form. Peptide text beside a SMILES is read from it. * marks the point of attachment. Bip(4'-COOH) = N[C@@H](Cc1ccc(-c2ccc(C(=O)O)cc2)cc1)C(=O)O; Bip(4'-NHAc) = CC(=O)Nc1ccc(-c2ccc(C[C@H](N)C(=O)O)cc2)cc1; Phe(3-CF3) = N[C@@H](Cc1cccc(C(F)(F)F)c1)C(=O)O; Ala(morpholin-4-yl) = N[C@@H](CN1CCOCC1)C(=O)O; Phe(4-CONH2) = NC(=O)c1ccc(C[C@H](N)C(=O)O)cc1; Phe(4-COOH) = N[C@@H](Cc1ccc(C(=O)O)cc1)C(=O)O; Bip = N[C@@H](Cc1ccc(-c2ccccc2)cc1)C(=O)O; Abu(3R-NH2) = C[C@@H](N)[C@H](N)C(=O)O; Phe(2-Cl) = N[C@@H](Cc1ccccc1Cl)C(=O)O; Phe(3-Me) = Cc1cccc(C[C@H](N)C(=O)O)c1; X11 = CC(N)[C@H](N[*:1])C(=O)[*:2]; hPhe = N[C@@H](CCc1ccccc1)C(=O)O; Cha = N[C@@H](CC1CCCCC1)C(=O)O; Propanoyl(3-OH) = O=C(CCO)*; Carboxymethyl = O=C(O)C*; NMeA = CN[C@@H](C)C(=O)O; Orn = NCCC[C@H](N)C(=O)O; Dab = NCC[C@H](N)C(=O)O; Dap = NC[C@H](N)C(=O)O
Target: T1, Alexa fluor-647 labeled human PD-L1-Ig binding to Jurkat cell line over-expressing human PD-1 (Homo sapiens, UniProt Q15116)
T1 construct: expressed in transfected cells; host or cells: Jurkat
Assay: Jurkat-PD-1 Cell Binding High-Content Screening Assay (CBA): Method 3 (Alexa fluor-647 labeled PD-L1-Ig)
Conditions: Jurkat-PD-1 cells, Alexa fluor-647 labeled PD-L1-Ig 177 nM
Outline: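 Jurkat cells over-expressing human PD-1 in RPMI/10% FCS were preincubated 2 h at 37 °C with compound, then exposed 1 h to Alexa fluor-647 labeled human PD-L1-Ig (177 nM final). Cells fixed in 4% paraformaldehyde with Hoechst 33342 and binding quantified by high-content imaging.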

[1] = head μM, read-out: CBA Method 3 μM

T1 sequence (Q15116 25-288): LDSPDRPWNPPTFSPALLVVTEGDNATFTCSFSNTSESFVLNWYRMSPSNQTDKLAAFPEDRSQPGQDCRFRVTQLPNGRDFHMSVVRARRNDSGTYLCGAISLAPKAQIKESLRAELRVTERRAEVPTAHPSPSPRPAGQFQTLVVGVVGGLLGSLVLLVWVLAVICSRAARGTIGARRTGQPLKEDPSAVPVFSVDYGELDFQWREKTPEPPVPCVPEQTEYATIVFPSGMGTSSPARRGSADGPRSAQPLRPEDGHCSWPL

| SMILES | IC50 (nM, read-out: CBA Method 3) [nM] | IC50 [1] [nM] |
| --- | --- | --- |
| Cc1cccc(C[C@@H]2NC(=O)[C@H](CC(=O)O)NC(=O)[C@H](Cc3ccc(OCC(=O)O)cc3)NC(=O)[C@H](CCCN)NC(=O)CSC[C@@H](C(=O)N[C@@H](CCN)C(N)=O)NC(=O)[C@H](CCCN)NC(=O)[C@H](C(C)C)NC(=O)[C@H](CC3CCCCC3)NC(=O)[C@H](CCN)NC(=O)[C@@H](CC(C)C)NC(=O)[C@H](C)N(C)C(=O)[C@H](CCC(N)=O)NC(=O)[C@H](Cc3ccc(-c4ccccc4)cc3)NC(=O)[C@H](Cc3ccc(C(=O)O)cc3)NC2=O)c1 [Example 5180] ({CH2CO}-[Orn]Y(Carboxymethyl)D[Phe(3-Me)][Phe(4-COOH)][Bip]Q[NMeA][dL][Dab][Cha]V[Orn]C[Dab]-NH2; thioether N-14) | 6.8 | – |
| Cc1cccc(C[C@@H]2NC(=O)[C@H](CC(=O)O)NC(=O)[C@H](Cc3ccc(OCC(=O)O)cc3)NC(=O)[C@H](CN3CCOCC3)NC(=O)CSC[C@@H](C(=O)N[C@@H](CCN)C(N)=O)NC(=O)[C@H](CCCN)NC(=O)[C@H](C(C)C)NC(=O)[C@H](CC3CCCCC3)NC(=O)[C@H](CCN)NC(=O)[C@@H](CC(C)C)NC(=O)[C@H](C)N(C)C(=O)[C@H](CCC(N)=O)NC(=O)[C@H](Cc3ccc(-c4ccccc4)cc3)NC(=O)[C@H](CCc3ccccc3)NC2=O)c1 [Example 5217] ({CH2CO}-[Ala(morpholin-4-yl)]Y(Carboxymethyl)D[Phe(3-Me)][hPhe][Bip]Q[NMeA][dL][Dab][Cha]V[Orn]C[Dab]-NH2; thioether N-14) | – | 260 |
| CC(C)C[C@H]1NC(=O)[C@H](C)N(C)C(=O)[C@H](CCC(N)=O)NC(=O)[C@H](Cc2ccc(-c3ccccc3)cc2)NC(=O)[C@H](CCc2ccccc2)NC(=O)[C@H](Cc2cccc(C(F)(F)F)c2)NC(=O)[C@H](CC(=O)O)NC(=O)[C@H](Cc2ccc(O)cc2)NC(=O)[C@H](CC2CCCCC2)NC(=O)CSC[C@@H](C(=O)N[C@@H](CCN)C(N)=O)NC(=O)[C@H](CCC(N)=O)NC(=O)[C@H](C(C)C)NC(=O)[C@H](CC2CCCCC2)NC(=O)[C@H](CCN)NC1=O [Example 5241] ({CH2CO}-[Cha]YD[Phe(3-CF3)][hPhe][Bip]Q[NMeA][dL][Dab][Cha]VQC[Dab]-NH2; thioether N-14) | 0.4 | – |
| CC(=O)Nc1ccc(-c2ccc(C[C@@H]3NC(=O)[C@H](Cc4cccc(C)c4)NC(=O)[C@H](CC(=O)O)NC(=O)[C@H](Cc4ccc(-c5ccc(C(=O)O)cc5)cc4)NC(=O)[C@H](CN4CCOCC4)NC(=O)CSC[C@@H](C(=O)N[C@@H](CCN)C(N)=O)NC(=O)[C@H](CCC(=O)O)NC(=O)[C@H](C(C)C)NC(=O)[C@H](CC4CCCCC4)NC(=O)[C@H](CCN)NC(=O)[C@@H](CC(C)C)NC(=O)[C@H](C)N(C)C(=O)[C@H](Cc4ccc(C(=O)O)cc4)NC(=O)[C@H](Cc4ccc(-c5ccccc5)cc4)NC3=O)cc2)cc1 [Example 5092] ({CH2CO}-[Ala(morpholin-4-yl)][Bip(4'-COOH)]D[Phe(3-Me)][Bip(4'-NHAc)][Bip][Phe(4-COOH)][NMeA][dL][Dab][Cha]VEC[Dab]-NH2; thioether N-14) | – | 100 |
| CC(=O)Nc1ccc(-c2ccc(C[C@@H]3NC(=O)[C@H](Cc4cccc(C(F)(F)F)c4)NC(=O)[C@H](CC(=O)O)NC(=O)[C@H](Cc4ccc(C(=O)O)cc4)NC(=O)[C@H](CC(C)C)NC(=O)CSC[C@@H](C(=O)N[C@@H](CCN)C(N)=O)NC(=O)[C@H](CC(N)=O)NC(=O)[C@H](C(C)C)NC(=O)[C@H](CC4CCCCC4)NC(=O)[C@H](CCN)NC(=O)[C@@H](CC(C)C)NC(=O)[C@H](C)N(C)C(=O)[C@H](CCCN)NC(=O)[C@H](Cc4ccc(-c5ccccc5)cc4)NC3=O)cc2)cc1 [Example 5095] ({CH2CO}-L[Phe(4-COOH)]D[Phe(3-CF3)][Bip(4'-NHAc)][Bip][Orn][NMeA][dL][Dab][Cha]VNC[Dab]-NH2; thioether N-14) | 6.1 | – |
| CC(C)C[C@H]1NC(=O)[C@H](C)N(C)C(=O)[C@H](Cc2ccc(OCC(=O)O)cc2)NC(=O)[C@H](Cc2ccc(-c3ccccc3)cc2)NC(=O)[C@H](Cn2cc(C3CC3)nn2)NC(=O)[C@H](Cc2cccc(C(F)(F)F)c2)NC(=O)[C@H](CC(=O)O)NC(=O)[C@H](Cc2ccc(C(=O)O)cc2)NC(=O)[C@H](CN2CCOCC2)NC(=O)CSC[C@@H](C(=O)N[C@@H](CCN)C(N)=O)NC(=O)[C@H](CCC(N)=O)NC(=O)[C@H](C(C)C)NC(=O)[C@H](CC2CCCCC2)NC(=O)[C@H](CCN)NC1=O [Example 5250] | 1.4 | – |
| CC(=O)Nc1ccc(-c2ccc(C[C@@H]3NC(=O)[C@H](Cc4cccc(C(F)(F)F)c4)NC(=O)[C@H](CC(=O)O)NC(=O)[C@H](Cc4ccc(C(=O)O)cc4)NC(=O)[C@H](CN4CCOCC4)NC(=O)CSC[C@@H](C(=O)N[C@@H](CCN)C(N)=O)NC(=O)[C@H](CC(N)=O)NC(=O)[C@H](C(C)C)NC(=O)[C@H](CC4CCCCC4)NC(=O)[C@H](CCN)NC(=O)[C@@H](CC(C)C)NC(=O)[C@H](C)N(C)C(=O)[C@H](CCCN)NC(=O)[C@H](Cc4ccc(-c5ccccc5)cc4)NC3=O)cc2)cc1 [Example 5111] ({CH2CO}-[Ala(morpholin-4-yl)][Phe(4-COOH)]D[Phe(3-CF3)][Bip(4'-NHAc)][Bip][Orn][NMeA][dL][Dab][Cha]VNC[Dab]-NH2; thioether N-14) | 4.7 | – |
| CC(C)C[C@H]1NC(=O)[C@H](C)N(C)C(=O)[C@H](CCC(N)=O)NC(=O)[C@H](Cc2ccc(-c3ccccc3)cc2)NC(=O)[C@H](Cc2ccc(OCC(=O)O)cc2)NC(=O)[C@H](Cc2cccc(C(F)(F)F)c2)NC(=O)[C@H](CC(=O)O)NC(=O)[C@H](CCC(N)=O)NC(=O)[C@H]([C@@H](C)N)NC(=O)CSC[C@@H](C(=O)N[C@@H](CCN)C(N)=O)NC(=O)[C@H](CCCN)NC(=O)[C@H](C(C)C)NC(=O)[C@H](CC2CCCCC2)NC(=O)[C@H](CCN)NC1=O [Example 5249] ({CH2CO}-[Abu(3R-NH2)]QD[Phe(3-CF3)]Y(Carboxymethyl)[Bip]Q[NMeA][dL][Dab][Cha]V[Orn]C[Dab]-NH2; thioether N-14) | 1.9 | – |
| Cc1cccc(C[C@@H]2NC(=O)[C@H](CC(=O)O)NC(=O)[C@H](Cc3ccc(OCC(=O)O)cc3)NC(=O)[C@H](Cc3ccccc3Cl)NC(=O)CSC[C@@H](C(=O)N[C@@H](CCN)C(N)=O)NC(=O)[C@H](CCCN)NC(=O)[C@H](C(C)C)NC(=O)[C@H](CC3CCCCC3)NC(=O)[C@H](CCN)NC(=O)[C@@H](CC(C)C)NC(=O)[C@H](C)N(C)C(=O)[C@H](CCC(N)=O)NC(=O)[C@H](Cc3ccc(-c4ccccc4)cc3)NC(=O)[C@H](Cc3ccc(C(=O)O)cc3)NC2=O)c1 [Example 5291] ({CH2CO}-[Phe(2-Cl)]Y(Carboxymethyl)D[Phe(3-Me)][Phe(4-COOH)][Bip]Q[NMeA][dL][Dab][Cha]V[Orn]C[Dab]-NH2; thioether N-14) | 0.2 | – |
| Cc1cccc(C[C@@H]2NC(=O)[C@H](CC(=O)O)NC(=O)[C@H](Cc3ccc(OCC(=O)O)cc3)NC(=O)[C@H](C)NC(=O)CSC[C@@H](C(=O)N[C@@H](CCN)C(N)=O)NC(=O)[C@H](CCCN)NC(=O)[C@H](C(C)C)NC(=O)[C@H](CC3CCCCC3)NC(=O)[C@H](CCN)NC(=O)[C@@H](CC(C)C)NC(=O)[C@H](C)N(C)C(=O)[C@H](CCC(N)=O)NC(=O)[C@H](Cc3ccc(-c4ccccc4)cc3)NC(=O)[C@H](Cc3ccc(C(=O)O)cc3)NC2=O)c1 [Example 5266] ({CH2CO}-AY(Carboxymethyl)D[Phe(3-Me)][Phe(4-COOH)][Bip]Q[NMeA][dL][Dab][Cha]V[Orn]C[Dab]-NH2; thioether N-14) | 2 | – |
| Cc1cccc(C[C@@H]2NC(=O)[C@H](CC(=O)O)NC(=O)[C@H](Cc3ccc(OCC(=O)O)cc3)NC(=O)[C@H](CC3CCCCC3)NC(=O)CSC[C@@H](C(=O)N[C@@H](CCN)C(N)=O)NC(=O)[C@H](CCC(=O)O)NC(=O)[C@H](C(C)C)NC(=O)[C@H](CC3CCCCC3)NC(=O)[C@H](CCN)NC(=O)[C@@H](CC(C)C)NC(=O)[C@H](C)N(C)C(=O)[C@H](CCC(N)=O)NC(=O)[C@H](Cc3ccc(-c4ccccc4)cc3)NC(=O)[C@H](CCc3ccccc3)NC2=O)c1 [Example 5214] ({CH2CO}-[Cha]Y(Carboxymethyl)D[Phe(3-Me)][hPhe][Bip]Q[NMeA][dL][Dab][Cha]VEC[Dab]-NH2; thioether N-14) | – | 30 |
| Cc1cccc(C[C@@H]2NC(=O)[C@H](CC(=O)O)NC(=O)[C@H](Cc3ccc(OCC(=O)O)cc3)NC(=O)[C@H](Cc3ccc(O)cc3)NC(=O)CSC[C@@H](C(=O)N[C@@H](CCN)C(N)=O)NC(=O)[C@H](CCCN)NC(=O)[C@H](C(C)C)NC(=O)[C@H](CC3CCCCC3)NC(=O)[C@H](CCN)NC(=O)[C@@H](CC(C)C)NC(=O)[C@H](C)N(C)C(=O)[C@H](CCC(N)=O)NC(=O)[C@H](Cc3ccc(-c4ccccc4)cc3)NC(=O)[C@H](Cc3ccc(C(=O)O)cc3)NC2=O)c1 [Example 5271] ({CH2CO}-YY(Carboxymethyl)D[Phe(3-Me)][Phe(4-COOH)][Bip]Q[NMeA][dL][Dab][Cha]V[Orn]C[Dab]-NH2; thioether N-14) | 1 | – |
| CC(=O)Nc1ccc(-c2ccc(C[C@@H]3NC(=O)[C@H](Cc4cccc(C(F)(F)F)c4)NC(=O)[C@H](CC(=O)O)NC(=O)[C@H](Cc4ccc(C(=O)O)cc4)NC(=O)[C@H](C(C)N)NC(=O)CSC[C@@H](C(=O)N[C@@H](CCN)C(N)=O)NC(=O)[C@H](CNC(=O)CCO)NC(=O)[C@H](C(C)C)NC(=O)[C@H](CC4CCCCC4)NC(=O)[C@H](CCN)NC(=O)[C@@H](CC(C)C)NC(=O)[C@H](C)N(C)C(=O)[C@H](Cc4ccc(C(N)=O)cc4)NC(=O)[C@H](Cc4ccc(-c5ccccc5)cc4)NC3=O)cc2)cc1 (stereo partly drawn) [Example 5148] ({CH2CO}-[X11][Phe(4-COOH)]D[Phe(3-CF3)][Bip(4'-NHAc)][Bip][Phe(4-CONH2)][NMeA][dL][Dab][Cha]V[Dap](Propanoyl(3-OH))C[Dab]-NH2; thioether N-14) | 0.9 | – |
